One assay has as its target T1, Bcr-Abl^T315I (Homo sapiens, UniProt P00519, T315I).
T1 construct: purchased Millipore
T1 sequence (P00519 242-493 T315I limits assumed): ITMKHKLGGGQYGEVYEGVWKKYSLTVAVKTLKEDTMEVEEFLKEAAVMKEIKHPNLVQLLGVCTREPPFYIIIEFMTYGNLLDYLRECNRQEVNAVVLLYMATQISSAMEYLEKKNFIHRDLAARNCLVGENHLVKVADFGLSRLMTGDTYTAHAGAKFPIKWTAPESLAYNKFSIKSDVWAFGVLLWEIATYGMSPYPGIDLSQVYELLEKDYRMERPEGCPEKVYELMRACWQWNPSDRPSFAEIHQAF
As to the kind of experiment: Kinase activation assay (IC50), fluorescence polarization tyrosine kinase assay kit. Format: biochemical. The following applies: T315I mutation kinase domain (Millipore), Poly (Glu, Tyr) 4:1 substrate, FP readout. The protocol: (§1) Test 1: Kinase Activation Assay (IC50)
(§2) A kinase domain (Millipore) comprising the entire cytoplasmic sequences of Bcr-Abl^wt and Bcr-Abl^T315I mutation kinases and a tyrosine kinase assay kit (Panvera, P2837) were used to measure an inhibitory activation on Bcr-abl. Other kinases such as FGFR, Flt, KDR, PDGFR, Fms, Kit, Raf, Tie2, Src, and Ret were also measured by the same method. In order to prepare a sample, the each compound obtained in Examples 1 to 128 was diluted 10 times with a kinase buffer to a concentration of 10˜0.0001 μM.
(§3) The each kinase was diluted with a kinase buffer to a concentration of 30˜300 ng/assay by using the each Kd value. The kinase buffer consisted of 100 mM HEPES (PH 7.4), 25 mM MgCl2, 10 mM MnCl2, and 250 μM Na3VO4, being kept refrigerated after filtered.
(§4) The test was conducted in 96 well polystyrene round bottom plates. First, 10 μL of the diluted sample was combined with 10 μL of the enzyme solution at room temperature for 10 minutes using a shaker. 10 μL of Poly (Glu, Tyr) 4:1 (Sigma) matrix solution in an appropriate concentration and 10 μL of ATP solution (5˜300 μM) were added to the sample and subjected to a reaction at room temperature for 60 minutes in a shaker. After 60 minutes, an EDTA solution was added thereto to complete the kinase reaction and the reaction mixture was left in a shaker for 5 minutes at room temperature. A tracer, an antibody, and a fluorescence polarization (FP) diluted reaction solution were mixed at a ratio of 1:1:3 to prepare a detecting solution, 50 μL of which was added to the each sample and subjected to a reaction at room temperature for 30 minutes in a shaker. As fluorescing, light was blocked out and the FP value was measured using a FP instrument (excitation wavelength: 485 nm, and emission wavelength: 530 nm).
(§5) And the inhibition on kinase reaction was calculated for the sample in the range of 0˜100% as compared to the control group, and the concentration on x-axis at 50% inhibition was obtained as an inhibitory concentration (IC50) value.
(§6) 50% inhibitory concentration (IC50) Y=bottom+(top−bottom)/(1+10exp(X−log IC50)
In general terms: Fluorescence polarisation rises when a labelled molecule tumbles more slowly, as on binding a larger partner.

In another assay the target is T2, Bcr-Abl^wt (Homo sapiens, UniProt P00519).
T2 construct: purchased Millipore
T2 sequence (P00519 242-493 limits assumed): T1 sequence (P00519 242-493 T315I limits assumed) with I74T
Described as above. Format: biochemical. The conditions noted are these: kinase domain (Millipore), Poly (Glu, Tyr) 4:1 substrate, FP readout. The protocol: as §1, §2, §3, §4, §5, §6

Substitutions are numbered along the chain they refer to.

The term IC50 denotes the concentration at which inhibition is half-maximal. Read a high IC50 as a need for much substance. Take `CCN1CCN(c2cc(NC(=O)c3ccc(C)c(/C=C/c4csc5c(N)ncnc45)c3)cc(C(F)(F)F)c2)CC1` [Example 3, (E)-3-(2-(4-aminothieno[3,2-d]pyrimidine-7-yl)vinyl)-N-(3-(4-ethylpiperazine-1-yl)-5-(trifluoromethyl)phenyl)-4-methylbenzamide]: the results for the IC50 against Bcr-Abl^T315I and against Bcr-Abl^wt were 1000 to 10000 nM and 1 to 100 nM, respectively.
Take `Cc1ccc(NC(=O)c2cccc(C(F)(F)F)c2)cc1/C=C/c1csc2c(N)ncnc12` [Example 6, (E)-N-(3-(2-(4-aminothieno[3,2-d]pyrimidine-7-yl)vinyl)-4-methylphenyl)-3-(trifluoromethyl)benzamide]: the IC50 against Bcr-Abl^T315I was 1000 to 10000 nM; at Bcr-Abl^wt it was 100 to 1000 nM.
`CCN1CCN(Cc2ccc(C(=O)Nc3ccc(C)c(/C=C/c4csc5c(N)ncnc45)c3)cc2C(F)(F)F)CC1` [Example 7, (E)-N-(3-(2-(4-aminothieno[3,2-d]pyrimidine-7-yl)vinyl)-4-methylphenyl)-4-((4-ethylpiperazin-1-yl)methyl)-3-(trifluoromethyl)benzamide]: the IC50 against Bcr-Abl^T315I was in the range of 100 to 1000 nM; against Bcr-Abl^wt, 1 to 100 nM.
Consider `Cc1ccc(C(=O)Nc2cccc(C(F)(F)F)c2)cc1NC(=O)c1csc2c(N)ncnc12` [Example 8, 4-amino-N-(2-methyl-5-(3-(trifluoromethyl)phenylcarbamoyl)phenyl)thieno[3,2-d]pyrimidine-7-carboxamide], for which the IC50 on Bcr-Abl^T315I and on Bcr-Abl^wt was 1 to 100 nM in each case.
As for `COc1cc(NC(=O)c2ccc(C)c(NC(=O)c3csc4c(N)ncnc34)c2)cc(OC)c1` [Example 12, 4-amino-N-(5-(3,5-dimethoxyphenylcarbamoyl)-2-methylphenyl)thieno[3,2-d]pyrimidine-7-carboxamide], the IC50 on Bcr-Abl^T315I is 100 to 1000 nM; against Bcr-Abl^wt, 1 to 100 nM.
On the same counts, the results for `COc1cc(Nc2ncnc3c(C(=O)Nc4cc(C(=O)Nc5cccc(C(F)(F)F)c5)ccc4C)csc23)cc(OC)c1OC` [Example 14, N-(2-methyl-5-(3-(trifluoromethyl)phenylcarbamoyl)phenyl)-4-(3,4,5-trimethoxyphenylamino)thieno[3,2-d]pyrimidine-7-carboxamide] are 1000 to 10000 nM and 100 to 1000 nM.
For the compound `Cc1ccc(C(=O)Nc2cccc(C(F)(F)F)c2)cc1NC(=O)c1csc2c(NC(C)C)ncnc12` [Example 17, 4-(isopropylamino)-N-(2-methyl-5-(3-(trifluoromethyl)phenylcarbamoyl)phenyl)thieno[3,2-d]pyrimidine-7-carboxamide], the IC50 at Bcr-Abl^T315I lay within 1000 to 10000 nM; against Bcr-Abl^wt, 1 to 100 nM.
In the case of `CC(=O)OCc1ccc(NC(=O)c2ccc(C)c(NC(=O)c3csc4c(NC5CC5)ncnc34)c2)cc1C(F)(F)F` [Example 23, 4-(3-(4-(cyclopropylamino)thieno[3,2-d]pyrimidine-7-carboxamido)-4-methylbenzamido)-2-(trifluoromethyl)benzyl acetate], the IC50 was 1000 to 10000 nM against Bcr-Abl^T315I and 1 to 100 nM at Bcr-Abl^wt.
The corresponding values for `Cc1ccc(C(=O)Nc2ccc(CO)c(C(F)(F)F)c2)cc1NC(=O)c1csc2c(NC3CC3)ncnc12` [Example 24, 4-(cyclopropylamino)-N-(5-(4-(hydroxymethyl)-3-(trifluoromethyl)phenylcarbamoyl)-2-methylphenyl)thieno[3,2-d]pyrimidine-7-carboxamide] are 1 to 100 nM and 1 to 100 nM.
On the same counts, the results for `Cc1ccc(C(=O)Nc2ccc(N3CCOCC3)nc2)cc1NC(=O)c1csc2c(NC3CC3)ncnc12` [Example 29, 4-(cyclopropylamino)-N-(2-methyl-5-(6-morpholinopyridine-3-ylcarbamoyl)phenyl)thieno[3,2-d]pyrimidine-7-carboxamide] are 1000 to 10000 nM and 1 to 100 nM.
On the same counts, the results for `CCN1CCN(c2ccc(NC(=O)c3ccc(C)c(NC(=O)c4csc5c(NC6CC6)ncnc45)c3)cn2)CC1` [Example 30, 4-(cyclopropylamino)-N-(5-(6-(4-ethylpiperazine-1-yl)pyridine-3-ylcarbamoyl)-2-methylphenyl)thieno[3,2-d]pyrimidine-7-carboxamide] are 1000 to 10000 nM and 1000 to 10000 nM.
For `Cc1cn(-c2cc(NC(=O)c3ccc(C)c(NC(=O)c4csc5c(NC6CC6)ncnc45)c3)cc(C(F)(F)F)c2)c(C)n1` [Example 31, 4-(cyclopropylamino)-N-(5-(3-(2,4-dimethyl-1H-imidazole-1-yl)-5-(trifluoromethyl)phenylcarbamoyl)-2-methylphenyl)thieno[3,2-d]pyrimidine-7-carboxamide], the IC50 against Bcr-Abl^T315I and against Bcr-Abl^wt was 1 to 100 nM each time.
Regarding `COc1ccc(C(=O)Nc2cc(-n3cnc(C)c3)cc(C(F)(F)F)c2)cc1NC(=O)c1csc2c(NC3CC3)ncnc12` [Example 36, 4-(cyclopropylamino)-N-(2-methoxy-5-(3-(4-methyl-1H-imidazole-1-yl)-5-(trifluoromethyl)phenylcarbamoyl)phenyl)thieno[3,2-d]pyrimidine-7-carboxamide], the 50% inhibitory concentration (IC50) lay in the range of 1000 to 10000 nM against Bcr-Abl^T315I and 1 to 100 nM against Bcr-Abl^wt.
As for `Cc1ccc(NC(=O)c2cccc(C(F)(F)F)c2)cc1NC(=O)c1csc2c(N)ncnc12` [Example 39, 4-amino-N-(2-methyl-5-(3-(trifluoromethyl)benzamido)phenyl)thieno[3,2-d]pyrimidine-7-carboxamide], the IC50 on Bcr-Abl^T315I and against Bcr-Abl^wt was 1 to 100 nM in each case.
In the case of `Cc1ccc(NC(=O)c2cc(NCCCN(C)C)cc(C(F)(F)F)c2)cc1NC(=O)c1csc2c(NC3CC3)ncnc12` [Example 41, 4-(cyclopropylamino)-N-(5-(3-(3-(dimethylamino)propylamino)-5-(trifluoromethyl)benzamido)-2-methylphenyl)thieno[3,2-d]pyrimidine-7-carboxamide], the concentration for half-maximal inhibition (IC50) against Bcr-Abl^T315I and at Bcr-Abl^wt was 1 to 100 nM in each case.
Consider `COc1cc(OC)cc(C(=O)Nc2ccc(C)c(NC(=O)c3csc4c(N)ncnc34)c2)c1` [Example 43, 4-amino-N-(5-(3,5-dimethoxybenzamido)-2-methylphenyl)thieno[3,2-d]pyrimidine-7-carboxamide], for which the IC50 on Bcr-Abl^T315I lay in the range of 100 to 1000 nM; at Bcr-Abl^wt, 1 to 100 nM.
The corresponding values for `Cc1ccc(NC(=O)c2cc(-n3cccc3)cc(C(F)(F)F)c2)cc1NC(=O)c1csc2c(N)ncnc12` [Example 45, N-(5-(3-(1H-pyrrol-1-yl)-5-(trifluoromethyl)benzamido)-2-methylphenyl)-4-aminothieno[3,2-d]pyrimidine-7-carboxamide] are 1 to 100 nM and 1 to 100 nM.
The corresponding values for `CCN1CCN(Cc2ccc(C(=O)Nc3ccc(C)c(NC(=O)c4csc5c(N)ncnc45)c3)cc2C(F)(F)F)CC1` [Example 49, 4-amino-N-(5-(4-((4-ethylpiperazine-1-yl)methyl)-3-(trifluoromethyl)benzamido)-2-methylphenyl)thieno[3,2-d]pyrimidine-7-carboxamide] are 1 to 100 nM and 1 to 100 nM.
As to `COc1cc(C(=O)Nc2ccc(C)c(NC(=O)c3csc4c(N)ncnc34)c2)nc2ccccc12` [Example 56, 4-amino-N-(5-(4-methoxyquinoline-2-carboxyamido)-2-methylphenyl)thieno[3,2-d]pyrimidine-7-carboxamide], the values for the IC50 at Bcr-Abl^T315I and on Bcr-Abl^wt were 1000 to 10000 nM and 100 to 1000 nM, respectively.

Source of the values: US8999973B2, “Thieno[3,2-d]pyrimidine derivatives having inhibitory activity on protein kinases” (Hanmi Science Co., Ltd, priority 2010, dated 2015).
